As a reminder, the AUC is the area under the concentration-time curve, a measure of exposure. Read a high AUC as high exposure. By bioavailability is commonly meant dose-corrected exposure relative to a reference, in per cent. Higher therefore signals good availability. Broadly, the Cmax is the highest concentration seen after dosing.

Data set [1] is described as follows: in vivo. The following applies: rat, po, 5 mg/kg.
Data set [2] can be described thus: in vivo. The following applies: primates, po, 5 mg/kg.
Data set [3] can be described thus: in vivo. Conditions: rat, po, 5 mg/kg. This is another data set of the same source.
Data set [4] is described as follows: in vivo. The following applies: simiiformes, po, 5 mg/kg.
Data set [5] is described as follows: in vivo. The following applies: dog, po, 5 mg/kg.
A short description of data set [6]: in vivo. Conditions: simiiformes, po, 5 mg/kg. This is another data set of the same source.
The nature of data set [7]: in vivo.
Data set [8] is described as follows: in vivo. The following applies: dog, po, 5 mg/kg. This is another data set of the same source.
Data set [9] in a line: in vivo. Conditions: dog, po, 5 mg/kg. This is another data set of the same source.
Data set [10] can be described thus: in vivo. The following applies: rat, plasma, po, 30 mg/kg.
Data set [11] is described as follows: in vivo. Conditions: primates, po, 10 mg/kg.
Data set [12] is described as follows: in vivo. The following applies: simiiformes, plasma, po, 10 mg/kg.
Data set [13] can be described thus: in vivo. The following applies: simiiformes, po, 10 mg/kg.
Data set [14] in a line: in vivo. Conditions: rat, po, 30 mg/kg.
Data set [15] in a line: in vivo. The following applies: rat, po, 30 mg/kg. This is another data set of the same source.
The nature of data set [16]: in vivo. The following applies: dog, po, 7.5 mg/kg.
Data set [17] can be described thus: in vivo. Conditions: primates, po, 5 mg/kg. This is another data set of the same source.
Data set [18] is described as follows: in vivo. Conditions: rat, po, 30 mg/kg. The source holds these as a separate data set.
Data set [19] is described as follows: in vivo. The following applies: dog, po, 7.5 mg/kg. The source holds these as a separate data set.
Data set [20] in a line: in vivo. The following applies: rat, po, 30 mg/kg. The source holds these as a separate data set.
A short description of data set [21]: in vivo. The following applies: dog, po, 7.5 mg/kg. The source holds these as a separate data set.

For `COc1cc2c(N3CCN(C(=O)Nc4ccc(OC(C)C)cc4)CC3)ncnc2cc1OCCCN1CCOCC1`, the AUC in data set [1] is 176 ng·h/mL; in data set [4], 663 ng·h/mL; in data set [9], 1390 ng·h/mL. The bioavailability stood at 18.9% in [2], 20.8% in [3] and 63.3% in data set [8]. Further, the figures for the Cmax in data set [5], in [6] and in [7] were 183 ng/mL, 135 ng/mL and 49.2 ng/mL, respectively.

Turning to `COc1cc2c(N3CCN(C(=O)Nc4ccc(OC(C)C)cc4)CC3)ncnc2cc1OCCN1CCCCC1`, the area under the curve (AUC) in data set [10] is 4410 ng·h/mL; in [12], 3080 ng·h/mL; in data set [9], 387 ng·h/mL. The bioavailability came to 38.8% in data set [11] and 13.5% in data set [8]. For the same molecule, the peak concentration (Cmax) turned out to be 386 ng/mL in data set [13], 43 ng/mL in data set [5] and 414 ng/mL in [14].

Regarding `COc1cc2c(N3CCN(C(=O)Nc4ccc(OC(C)C)cc4)CC3)ncnc2cc1OCCCN1CCCCC1` [TANDUTINIB], the AUC was determined as 1700 ng·h/mL in data set [15], 2690 ng·h/mL in data set [16] and 2920 ng·h/mL in data set [4]. Also, the bioavailability is 48.9% in data set [17], 23.8% in [18] and 97.6% in data set [19]. The Cmax stood at 256 ng/mL in data set [20], 481 ng/mL in data set [21] and 317 ng/mL in [7].
